Values of other authors, collected in patent publication US9273049B2 (North-West University, priority 2009, dated 2016).

Details: Class II = high permeability, low solubility

FDA classification: Class II
Structure (SMILES): Cc1ccnc2c1NC(=O)c1cccnc1N2C1CC1 [nevirapine, 11-cyclopropyl1-5,11-dihydro-4-methyl-6H-dipyrido[3,2-b: 2′,3′-e][1,4]diazepin-6-one]
